Patent US20050130252A1, “Stabilized susceptibility tests of aerobic pathogens” (Wyeth Holdings Corporation, priority 2003, published 2005)
In brackets after ≈: the same amount, converted by molar mass. Like-named read-outs stand apart in the source and are kept apart here.

Tests used:
Assay in all cases: Broth microdilution MIC
[1] = test system: E. faecalis ATCC 29212; format: cell-based, Enterococcus faecalis; settings: for MIC: Enterococcus faecalis, ATCC29212, E. faecalis ATCC 29212, read-out: Minimal Inhibitory Concentration; for Minimal Inhibitory Concentration: E. faecalis ATCC 29212
Experimental: (§1) The process for preparing susceptibility test medium are the following steps: • a. Preparing Mueller Hinton Broth II medium by adding 22 grams powdered media to 1.0 liter distilled water; • b. Autoclaving (121° C., 15 psi, 15 minutes) and cooling the medium; • c. Adding Oxyrase® up to about 10% final volume and keeping at 35-37° C. in an incubator for 30 minutes; • d. Adding about 50 μL to each well of a 96 well microtiter plate; • e. Weighing drug and adding broth to drug to bring up to about (standard 128 μg/ml); • f. Adding 50 μL of the drug to the first column of the titer plate; • g. Diluting by two-fold serial diluting across or down the plate. • h. Preparing a Prompt™ inoculum at 10^8 CFU/ml; • i. Diluting inoculum 1:100 in the broth at […] in 9.9 ml (1:100) is 10^6 colony forming units (CFU) forming the adjusted inoculum; • j. Adding 50 μL of the adjusted inoculum to the wells of the microtiter plate; • k. Incubating the plates at 35-37° C. for 18-22 hours; and • l. Reading, with the unaided eye, the MIC.
(§2) The in vitro activities of tigecycline and control antibiotics were determined by the broth microdilution method as recommended by the NCCLS. (National Committee for Clinical Laboratory Standards, 2003. Methods for Dilution Antimicrobial Susceptibility Tests for Bacteria That Grow Aerobically; Approved Standards: M7-A6, Sixth ed, vol. 23., National Committee for Clinical Laboratory Standards Wayne, Pa.) was used for the standard procedures. MBH with 5% lysed horse blood was used for testing S. pneumoniae and Haemophilus Test Medium was used for testing H. influenzae. Oxyrase® (Oxyrase Inc, Mansfield, Ohio) was used according to the manufacturer's instructions by adding 1 ml of Oxyrase® to 50 ml of media. Media age studies were performed by preparing MHB in multiple flasks, then storing the media under various conditions. MICs were usually performed in duplicate on each day of testing. Storage under anaerobic conditions was conducted in an anaerobic chamber (MACS MG 1000, Don Whitley Scientific LTD). The pH of the media was determined by pH meter (Corning 430). A comparison of the in vitro activity of tigecycline by agar and broth dilution methodolgies with and without Oxyrase® against clinical isolates is shown in Table 1.

[2] = test system: E. coli ATCC 25922; format: cell-based, Escherichia coli; settings: for MIC: Escherichia coli, ATCC25922, E. coli ATCC 25922, read-out: Minimal Inhibitory Concentration; for Minimal Inhibitory Concentration: E. coli ATCC 25922
Experimental: as §1, §2

[3] = test system: S. aureus ATCC 25923; format: cell-based, Staphylococcus aureus; settings: for MIC: Staphylococcus aureus, ATCC25923, S. aureus ATCC 25923, read-out: Minimal Inhibitory Concentration; for Minimal Inhibitory Concentration: S. aureus ATCC 25923
Experimental: as §1, §2

[4] = test system: S. aureus ATCC 29213; format: cell-based, Staphylococcus aureus; settings: Staphylococcus aureus, ATCC29213, S. aureus ATCC 29213, read-out: Minimal Inhibitory Concentration
Experimental: as §1, §2

[5] = test system: P. aeruginosa ATCC 27853; format: cell-based, Pseudomonas aeruginosa; settings: for Minimal Inhibitory Concentration: P. aeruginosa ATCC 27853; for MIC: Pseudomonas aeruginosa, ATCC27853, P. aeruginosa ATCC 27853, read-out: Minimal Inhibitory Concentration
Experimental: as §1, §2

[6] = Mueller Hinton Broth II (Fresh)
[7] = Mueller Hinton Broth II (MHB II)

SMILES | MIC ([1]; MHB II + 0.05% Catalase) [µg/mL] | MIC ([1]; MHB II + 0.05% L-ascorbic Acid) [µg/mL] | MIC ([1]; MHB II + 0.05% L-cysteine) [µg/mL] | MIC ([1]; MHB II + 0.05% Sodium Pyruvate) [µg/mL] | MIC ([1]; MHB II + 0.05% Thioglycolate) [µg/mL] | MIC [1, 6] [µg/mL] | MIC ([2]; MHB II + 0.05% Catalase) [µg/mL] | MIC ([2]; MHB II + 0.05% L-ascorbic Acid) [µg/mL] | MIC ([2]; MHB II + 0.05% L-cysteine) [µg/mL] | MIC ([2]; MHB II + 0.05% Sodium Pyruvate) [µg/mL] | MIC ([2]; MHB II + 0.05% Thioglycolate) [µg/mL] | MIC ([2]; MHB II + 2% Oxyrase) [µg/mL] | MIC [2, 6] [µg/mL] | MIC [2, 7] [µg/mL] | MIC ([3]; MHB II + 0.05% Sodium Pyruvate) [µg/mL] | MIC ([4]; MHB II + 0.05% Catalase) [µg/mL] | MIC ([4]; MHB II + 0.05% L-ascorbic Acid) [µg/mL] | MIC ([4]; MHB II + 0.05% L-cysteine) [µg/mL] | MIC ([4]; MHB II + 0.05% Thioglycolate) [µg/mL] | MIC ([4]; MHB II + 2% Oxyrase) [µg/mL] | other results
CN(C)[C@@H]1C(O)=C(C(N)=O)C(=O)[C@@]2(O)C(O)=C3C(=O)c4c(O)cccc4[C@@](C)(O)[C@H]3C[C@@H]12 [Tetracycline] | 16 | > 4 | > 4 | 16 | > 16 | > 4 | 4 | > 4 | 4 | 2 | 4 | 1 | 1 to 2 (≈ 2.25 to 4.5 µM) | 1 to 2 (≈ 2.25 to 4.5 µM) | 1 | 1 | 2 | 1 | 1 | 0.5 to 1 | MIC [4, 6]: 1 to 2 µg/mL (≈ 2.25 to 4.5 µM); MIC [4, 7]: 0.5 to 1 µg/mL (≈ 1.13 to 2.25 µM)
CN(C)CC(=O)Nc1cc(N(C)C)c2c(c1O)C(=O)C1=C(O)C3(O)C(=O)C(C(N)=O)=C(O)C(N(C)C)C3CC1C2 (stereo not shown) [DMG-MINO, N,N-dimethylglycylamido 9-aminominocycline] |  |  |  |  |  |  |  |  |  |  |  |  |  |  |  |  |  |  |  |  | Minimal Inhibitory Concentration ([1]; 2% Oxyrase): 0.03 µg/mL; Minimal Inhibitory Concentration ([1]; No Oxyrase): 0.25 µg/mL; Minimal Inhibitory Concentration ([2]; 2% Oxyrase): 0.06 µg/mL; Minimal Inhibitory Concentration ([2]; No Oxyrase): 0.25 µg/mL; Minimal Inhibitory Concentration ([5]; 2% Oxyrase): 16 µg/mL; Minimal Inhibitory Concentration ([5]; No Oxyrase): 16 µg/mL; Minimal Inhibitory Concentration ([3]; 2% Oxyrase): 0.12 µg/mL; Minimal Inhibitory Concentration ([3]; No Oxyrase): 0.50 µg/mL
CN(C)CC(=O)Nc1ccc2c(c1O)C(=O)C1=C(O)C3(O)C(=O)C(C(N)=O)=C(O)C(N(C)C)C3CC1C2 (stereo not shown) [DMG-DMDOT, N,N-dimethylglycylamido 9 amino-6-demethyl-6-deoxytetracycline] |  |  |  |  |  |  |  |  |  |  |  |  |  |  |  |  |  |  |  |  | Minimal Inhibitory Concentration ([1]; 2% Oxyrase): 0.06 µg/mL; Minimal Inhibitory Concentration ([1]; No Oxyrase): 0.06 µg/mL; Minimal Inhibitory Concentration ([2]; 2% Oxyrase): 0.12 µg/mL; Minimal Inhibitory Concentration ([2]; No Oxyrase): 0.12 µg/mL; Minimal Inhibitory Concentration ([5]; 2% Oxyrase): 8 µg/mL; Minimal Inhibitory Concentration ([5]; No Oxyrase): 16 µg/mL; Minimal Inhibitory Concentration ([3]; 2% Oxyrase): 0.12 µg/mL; Minimal Inhibitory Concentration ([3]; No Oxyrase): 0.25 µg/mL
CN(C)c1ccc(O)c2c1C[C@H]1C[C@H]3[C@H](N(C)C)C(O)=C(C(N)=O)C(=O)[C@@]3(O)C(O)=C1C2=O [Minocycline] | 4 | 4 | 4 | 2 | 8 | 4 (≈ 8.74 µM) | 1 | 4 | 2 | 0.5 | 1 | 0.5 | 0.5 to 1 (≈ 1.09 to 2.19 µM) | 0.5 to 1 (≈ 1.09 to 2.19 µM) | 0.25 | 0.5 | 1 | 0.25 | 0.25 | 0.12 to 0.25 | MIC ([1]; 2% Oxyrase): 2 µg/mL (≈ 4.37 µM); MIC ([1]; MHB II + 2% Oxyrase): 2 to 4 µg/mL; MIC [1, 7]: 4 to 8 µg/mL (≈ 8.74 to 17.5 µM); MIC ([1]; No Oxyrase): 4 µg/mL (≈ 8.74 µM); MIC ([2]; 2% Oxyrase): 0.5 µg/mL (≈ 1.09 µM); MIC ([2]; No Oxyrase): 1 µg/mL (≈ 2.19 µM); MIC ([5]; 2% Oxyrase): 16 µg/mL (≈ 35 µM); MIC ([5]; No Oxyrase): > 16 µg/mL; MIC ([3]; 2% Oxyrase): 0.12 µg/mL (≈ 0.262 µM); MIC ([3]; No Oxyrase): 0.25 µg/mL (≈ 0.546 µM); MIC [4, 6]: 0.12 to 0.5 µg/mL (≈ 0.262 to 1.09 µM); MIC [4, 7]: 0.25 to 0.5 µg/mL (≈ 0.546 to 1.09 µM)
